Marks after values point to notes of the source that are not given here.
How the values were obtained:
Assay type in all cases: in vivo
[1] = tested on: Phakopsora pachyrhizi (the causal agent of Asian soybean rust); assay: Test A: preventive spray on soybean seedlings, Asian soybean rust, visual disease rating; settings: soybean seedlings
In short: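 Preventive test: soybean seedlings received a run-off spray of compound suspended at the set ppm in 50/50 acetone/water plus 250 ppm PEG400, and one day later a P. pachyrhizi spore inoculum. Visual scoring (0 none to 100 full disease control) followed 24 h saturated incubation and 8 days' growth chamber, both at 22° C.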

[2] = tested on: Zymoseptoria tritici (the causal agent of wheat leaf blotch); assay: Test B: preventive spray on wheat seedlings, wheat leaf blotch, visual disease rating; settings: wheat seedlings
Source text: General protocol for preparing test suspensions for Tests A-D: the test compounds were first dissolved in acetone in an amount equal to 3% of the final volume and then suspended at the desired concentration (in ppm) in acetone and purified water (50/50 mix by volume) containing 250 ppm of the surfactant PEG400 (polyhydric alcohol esters). The resulting test suspensions were then used in Tests A-D.
The test suspension was sprayed to the point of run-off on wheat seedlings. The following day the seedlings were inoculated with a spore suspension of Zymoseptoria tritici (the causal agent of wheat leaf blotch) and incubated in a saturated atmosphere at 24° C. for 48 h, and then moved to a growth chamber at 20° C. for 17 days, after which time visual disease ratings were made.
The test results for Tests A-C presented in Table A below for compounds of Formula 1 illustrate the fungicidal activity of component (a) contributing to the plant disease control utility of compositions comprising component (a) in combination with component (b) according to the present invention. In the Table, a rating of 100 indicates 100% disease control and a rating of 0 indicates no disease control (relative to the controls). A dash (-) indicates the compound was not tested. The test suspensions were sprayed at the concentration listed in the column “Rate in ppm”, unless otherwise indicated. An asterisk “*” next to the rating indicates a 250 ppm test suspension was used, a double asterisk “**” next to the rating indicates a 100 ppm test suspension was used, and a triple asterisk “***” next to the rating indicates a 50 ppm test suspension was used.

[3] = tested on: Puccinia recondita f. sp. tritici (the causal agent of wheat leaf rust); assay: Test C: preventive spray on wheat seedlings, wheat leaf rust, visual disease rating; settings: wheat seedlings
In short: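 Wheat seedlings sprayed to run-off with compound in acetone/water (50/50) with 250 ppm PEG400, then inoculated with spores the following day. After 24 h saturated humidity at 20° C. and 6 days in growth chamber at 20° C., disease rated visually as % control relative to untreated controls.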

[4] = 10 ppm test suspension, 100 = 100% disease control, 0 = no control
[5] = 250 ppm test suspension, 100 = 100% disease control
[6] = test suspension 10 ppm, 100 = 100% disease control, 0 = no control
[7] = test suspension 100 ppm (** next to rating)
[8] = 50 ppm test suspension, 100 = 100% disease control, 0 = no control

FC(F)(F)c1nc(-c2ccc(Cn3cnc4ccccc43)cc2)no1 [compound 91]
Test A disease control rating ([1]; test suspension 250 ppm): 100%
Test B disease control rating ([2]; test suspension 250 ppm): 96%
Test C disease control rating ([3]; test suspension 250 ppm): 100%

N#CCNC(=O)c1csc(COc2ccc(-c3noc(C(F)(F)F)n3)cc2)n1 [compound 473]
Test A disease control rating [1, 4]: 94%
Test B disease control rating [2, 5]: 28* %
Test C disease control rating [3, 4]: 89%

FC(F)(F)c1nc(-c2ccc(Cn3nc4ccccc4n3)cc2)no1 [compound 93]
Test A disease control rating ([1]; test suspension 250 ppm): 100%
Test B disease control rating ([2]; test suspension 250 ppm): 39%
Test C disease control rating ([3]; test suspension 250 ppm): 99%

N#CCNC(=O)c1ccc(Cc2ccc(-c3noc(C(F)(F)F)n3)cc2)cc1 [compound 283]
Test A disease control rating [1, 6]: 100%
Test B disease control rating ([2]; test suspension 250 ppm): 0* %
Test C disease control rating ([3]; test suspension 10 ppm): 98%

COC(=O)c1nn(Cc2ccc(-c3noc(C(F)(F)F)n3)cc2)c2ccccc12 [compound 134]
Test A disease control rating ([1]; test suspension 255 ppm): 100%
Test B disease control rating ([2]; test suspension 255 ppm): 0%
Test C disease control rating ([3]; test suspension 255 ppm): 80%

COC(=O)c1cc(COc2ccc(-c3noc(C(F)(F)F)n3)cc2)on1 [compound 312]
Test A disease control rating [1, 6]: 0%
Test B disease control rating ([2]; test suspension 250 ppm): 0* %
Test C disease control rating ([3]; test suspension 10 ppm): 0%

Cn1c(C(F)(F)F)nn(CCc2ccc(-c3noc(C(F)(F)F)n3)cc2)c1=O [compound 239]
Test A disease control rating ([1]; test suspension 250 ppm): 100%
Test B disease control rating ([2]; test suspension 250 ppm): 0%
Test C disease control rating ([3]; test suspension 250 ppm): 100%

N#Cc1cn(Cc2ccc(-c3noc(C(F)(F)F)n3)cc2)c2ccccc12 [compound 129]
Test A disease control rating ([1]; test suspension 260 ppm): 100%
Test B disease control rating ([2]; test suspension 260 ppm): 0%
Test C disease control rating ([3]; test suspension 260 ppm): 89%

CC(C)c1nn(Cc2ccc(-c3noc(C(F)(F)F)n3)cc2)c(=O)n1C [compound 237]
Test A disease control rating ([1]; test suspension 250 ppm): 100%
Test B disease control rating ([2]; test suspension 250 ppm): 94%
Test C disease control rating ([3]; test suspension 250 ppm): 100%

CC(C)COC(=O)c1cnn(Cc2ccc(-c3noc(C(F)(F)F)n3)cc2)c1 [compound 171]
Test A disease control rating [1, 6]: 100%
Test B disease control rating [2, 7]: 37** %
Test C disease control rating ([3]; test suspension 10 ppm): 100%

O=C(NCC1CC1)c1csc(Cc2ccc(-c3noc(C(F)(F)F)n3)s2)n1 [compound 202]
Test A disease control rating ([1]; test suspension 250 ppm): 100%
Test B disease control rating ([2]; test suspension 250 ppm): 83%
Test C disease control rating ([3]; test suspension 250 ppm): 100%

N#Cc1cnn(CCCc2ccc(-c3noc(C(F)(F)F)n3)cc2)c1 [compound 359]
Test A disease control rating [1, 6]: 100%
Test B disease control rating ([2]; test suspension 250 ppm): 99* %
Test C disease control rating ([3]; test suspension 10 ppm): 95%

N#CCNC(=O)c1csc(Cc2ccc(-c3noc(C(F)(F)F)n3)cc2)n1 [compound 393]
Test A disease control rating [1, 4]: 100%
Test B disease control rating [2, 5]: 94* %
Test C disease control rating [3, 4]: 100%

O=C(NCCC(F)(F)F)c1csc(COc2ccc(-c3noc(C(F)(F)F)n3)cc2)n1 [compound 472]
Test A disease control rating [1, 4]: 77%
Test B disease control rating [2, 5]: 22* %
Test C disease control rating [3, 4]: 0%

Cc1cc(C)n(Cc2ccc(-c3noc(C(F)(F)F)n3)cc2)n1 [compound 145]
Test A disease control rating ([1]; test suspension 250 ppm): 100%
Test B disease control rating ([2]; test suspension 250 ppm): 0%
Test C disease control rating ([3]; test suspension 250 ppm): 100%

CCOC(=O)c1cn(Cc2ccc(-c3noc(C(F)(F)F)n3)cc2)nc1C(F)(F)F [compound 111]
Test A disease control rating ([1]; test suspension 255 ppm): 100%
Test B disease control rating ([2]; test suspension 255 ppm): 0%
Test C disease control rating ([3]; test suspension 255 ppm): 86%

CCOC(=O)c1cnn(Cn2ccc(-c3noc(C(F)(F)F)n3)cc2=O)c1 [compound 234]
Test A disease control rating [1, 6]: 100%
Test B disease control rating ([2]; test suspension 250 ppm): 87* %
Test C disease control rating ([3]; test suspension 10 ppm): 88%

O=C(NC1CSC1)c1coc(Cc2ccc(-c3noc(C(F)(F)F)n3)cc2)n1 [compound 329]
Test A disease control rating [1, 6]: 100%
Test B disease control rating ([2]; test suspension 250 ppm): 98* %
Test C disease control rating ([3]; test suspension 10 ppm): 98%

O=C(NCCn1cccn1)c1coc(Cc2ccc(-c3noc(C(F)(F)F)n3)cc2)c1 [compound 293]
Test A disease control rating [1, 6]: 100%
Test B disease control rating ([2]; test suspension 250 ppm): 91* %
Test C disease control rating ([3]; test suspension 10 ppm): 79%

CCOC(=O)c1cnn(CCn2nc(-c3noc(C(F)(F)F)n3)ccc2=O)c1 [compound 347]
Test A disease control rating [1, 6]: 0%
Test B disease control rating ([2]; test suspension 250 ppm): 0* %
Test C disease control rating ([3]; test suspension 10 ppm): 0%

CCOC(=O)c1cnn(Cc2csc(-c3noc(C(F)(F)F)n3)c2)c1 [compound 193]
Test A disease control rating ([1]; test suspension 50 ppm): 100%
Test B disease control rating ([2]; test suspension 250 ppm): 28* %
Test C disease control rating ([3]; test suspension 50 ppm): 100%

CCOC(=O)c1cnn(CCN2CCC(c3noc(C(F)(F)F)n3)CC2)c1 [compound 459]
Test A disease control rating [1, 8]: 0%
Test B disease control rating [2, 5]: 0* %
Test C disease control rating [3, 8]: 0%

CCCOC(=O)c1cnn(Cc2ccc(-c3noc(C(F)(F)F)n3)cc2)c1 [compound 60]
Test A disease control rating [1, 6]: 100%
Test B disease control rating [2, 7]: 75** %
Test C disease control rating ([3]; test suspension 10 ppm): 100%

O=c1oc2ccccc2n1Cc1ccc(-c2noc(C(F)(F)F)n2)cc1 [compound 118]
Test A disease control rating ([1]; test suspension 250 ppm): 100%
Test B disease control rating ([2]; test suspension 250 ppm): 0%
Test C disease control rating ([3]; test suspension 250 ppm): 98%

FC(F)(F)c1nc(-c2ccc(Cn3nnc4ccccc43)cc2)no1 [compound 92]
Test A disease control rating ([1]; test suspension 250 ppm): 0%
Test B disease control rating ([2]; test suspension 250 ppm): 96%
Test C disease control rating ([3]; test suspension 250 ppm): 100%

COCCNC(=O)c1csc(COc2ccc(-c3noc(C(F)(F)F)n3)cc2)n1 [compound 469]
Test A disease control rating [1, 4]: 96%
Test B disease control rating [2, 5]: 65* %
Test C disease control rating [3, 4]: 86%

ON=Cc1cnn(Cc2ccc(-c3noc(C(F)(F)F)n3)cc2)c1 (mixture of isomers) [compound 20]
Test A disease control rating ([1]; test suspension 250 ppm): 100%
Test B disease control rating ([2]; test suspension 250 ppm): 99%
Test C disease control rating ([3]; test suspension 250 ppm): 100%

CON=C(CCl)COC(=O)c1cnn(Cc2ccc(-c3noc(C(F)(F)F)n3)cc2)c1 [compound 494]
Test A disease control rating [1, 4]: 100%
Test B disease control rating [2, 5]: 47* %
Test C disease control rating [3, 4]: 0%

FC(F)(F)c1nc(-c2ccc(OCc3nc4ncccc4o3)cc2)no1 [compound 320]
Test A disease control rating [1, 6]: 97%
Test B disease control rating ([2]; test suspension 250 ppm): 33* %
Test C disease control rating ([3]; test suspension 10 ppm): 0%

N#Cc1coc(Cc2ccc(-c3noc(C(F)(F)F)n3)cc2)n1 [compound 256]
Test A disease control rating [1, 6]: 100%
Test B disease control rating ([2]; test suspension 250 ppm): 98* %
Test C disease control rating ([3]; test suspension 10 ppm): 99%

COc1ccc2c(C#N)nn(Cc3ccc(-c4noc(C(F)(F)F)n4)cc3)c2c1 [compound 120]
Test A disease control rating ([1]; test suspension 260 ppm): 99%
Test B disease control rating ([2]; test suspension 260 ppm): 0%
Test C disease control rating ([3]; test suspension 260 ppm): 68%

CCOC(=O)c1ccn(Cc2ccc(-c3noc(C(F)(F)F)n3)cc2)n1 [compound 114]
Test A disease control rating ([1]; test suspension 250 ppm): 100%
Test B disease control rating ([2]; test suspension 250 ppm): 0%
Test C disease control rating ([3]; test suspension 250 ppm): 100%

OC(c1ccc(-c2noc(C(F)(F)F)n2)cc1)c1cccc(F)c1 (stereo not drawn) [compound 498]
Test A disease control rating [1, 4]: 100%
Test B disease control rating [2, 5]: 43* %
Test C disease control rating [3, 4]: 0%

O=C(CCl)COC(=O)c1cnn(Cc2ccc(-c3noc(C(F)(F)F)n3)cc2)c1 [compound 495]
Test A disease control rating [1, 4]: 100%
Test B disease control rating [2, 5]: 43* %
Test C disease control rating [3, 4]: 0%

CCOC(=O)c1nn(Cc2ccc(-c3noc(C(F)(F)F)n3)cc2)c2ccccc12 [compound 117]
Test A disease control rating ([1]; test suspension 255 ppm): 88%
Test B disease control rating ([2]; test suspension 255 ppm): 0%
Test C disease control rating ([3]; test suspension 255 ppm): 41%

O=C(O)c1csc(Cc2ccc(-c3noc(C(F)(F)F)n3)cc2)n1 [compound 345]
Test A disease control rating [1, 6]: 96%
Test B disease control rating ([2]; test suspension 250 ppm): 50* %
Test C disease control rating ([3]; test suspension 10 ppm): 68%

CN(C)C(=O)C1=NOC(Cn2cc(-c3noc(C(F)(F)F)n3)cn2)C1 (stereo not drawn) [compound 306]
Test A disease control rating ([1]; test suspension 50 ppm): 0%
Test B disease control rating ([2]; test suspension 250 ppm): 10* %
Test C disease control rating ([3]; test suspension 50 ppm): 0%

N#Cc1ccn(Cc2ccc(-c3noc(C(F)(F)F)n3)cc2)c(=O)c1 [compound 89]
Test A disease control rating ([1]; test suspension 250 ppm): 100%
Test B disease control rating ([2]; test suspension 250 ppm): 83%
Test C disease control rating ([3]; test suspension 250 ppm): 100%

CNC(=O)C1=NOC(Cc2ccc(-c3noc(C(F)(F)F)n3)cc2)C1 (stereo not drawn) [compound 165]
Test A disease control rating ([1]; test suspension 260 ppm): 100%
Test B disease control rating ([2]; test suspension 260 ppm): 95%
Test C disease control rating ([3]; test suspension 260 ppm): 100%

Source: patent US20240090503A1, “FUNGICIDAL OXADIAZOLES AND THEIR MIXTURES” (FMC CORPORATION, priority 2020, published 2024)
